Measurements published in PMC8125234, “Cardiolipin Stabilizes and Increases Catalytic Efficiency of Carnitine Palmitoyltransferase II and Its Variants S113L, P50H, and Y479F” (International Journal of Molecular Sciences, 2021).
Where a chain is given by its changes, count along the chain named.

Assays:
Experiment in all cases: nanoDSF protein stability in presence of CL or β-OG
Type in all cases: binding
[1] = molecular target: T1, CPT II variant Y479F (Homo sapiens, UniProt P23786, Y479F)
T1 construct: made in house; host or cells: Escherichia coli BL21Gold DE
T1 sequence (P23786 26-658 Y479F): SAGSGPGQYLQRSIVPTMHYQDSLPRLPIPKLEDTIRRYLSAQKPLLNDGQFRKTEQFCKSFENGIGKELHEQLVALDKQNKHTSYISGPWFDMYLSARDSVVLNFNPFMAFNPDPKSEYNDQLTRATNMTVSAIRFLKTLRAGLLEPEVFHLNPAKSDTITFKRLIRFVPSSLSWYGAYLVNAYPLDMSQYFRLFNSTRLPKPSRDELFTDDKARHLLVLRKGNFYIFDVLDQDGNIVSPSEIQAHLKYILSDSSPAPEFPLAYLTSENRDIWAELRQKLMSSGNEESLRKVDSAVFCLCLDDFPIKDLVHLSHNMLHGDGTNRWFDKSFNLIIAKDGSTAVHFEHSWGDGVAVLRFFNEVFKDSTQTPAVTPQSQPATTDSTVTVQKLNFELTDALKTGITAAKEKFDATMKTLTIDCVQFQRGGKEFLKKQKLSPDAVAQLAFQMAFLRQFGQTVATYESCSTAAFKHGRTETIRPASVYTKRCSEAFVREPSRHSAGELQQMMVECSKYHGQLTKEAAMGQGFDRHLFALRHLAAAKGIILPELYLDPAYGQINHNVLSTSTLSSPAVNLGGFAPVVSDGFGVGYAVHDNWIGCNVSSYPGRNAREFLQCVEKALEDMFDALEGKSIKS
Procedure: (§1) NanoDSF is a standard method for the investigation of the folding/unfolding of proteins and the interaction of proteins with effectors/ligands/substrates
(§2) The protein stability was investigated applying nano differential scanning fluorimetry (nanoDSF) using a protein concentration of 1 mg/mL in assay buffer. […] The heating rate has been set to 1 °C per min. A heating ramp from 15 to 95 °C was determined. The nanoDSF data were obtained using a Prometheus NT.48 device. First derivatives were calculated using PR.ThermControl software (NanoTemper Technologies GmbH, Munich, Germany). Experiments were performed at least three times independently as double determination.

[2] = molecular target: T2, CPT II variant S113L (Homo sapiens, UniProt P23786, S113L)
T2 construct: made in house; host or cells: Escherichia coli BL21Gold DE
T2 sequence (P23786 26-658 S113L): T1 sequence (P23786 26-658 Y479F) with S88L, F454Y
Procedure: as §1, §2

[3] = molecular target: T3, CPT II variant P50H (Homo sapiens, UniProt P23786, P50H)
T3 construct: made in house; host or cells: Escherichia coli BL21Gold DE
T3 sequence (P23786 26-658 P50H): T1 sequence (P23786 26-658 Y479F) with P25H, F454Y
Procedure: as §1, §2

[4] = molecular target: T4, CPT II WT (Homo sapiens, UniProt P23786)
T4 construct: made in house; host or cells: Escherichia coli BL21Gold DE
T4 sequence (P23786 26-658): T1 sequence (P23786 26-658 Y479F) with F454Y
Procedure: as §1, §2

[5] = reference TM of WT in buffer (ΔTM = 0 °C)

Increase of ΔTM-value due to the addition of CL ([1]; 0.25 mM CL): +10 °C
TM in Buffer with 0.25 mM CL ([1]; 1 mg/mL protein): 45.9 ± 1.0 °C
∆TM in Buffer with 0.25 mM CL [1, 5]: 9.0 ± 0.1 °C
Increase of ΔTM-value due to the addition of CL ([2]; 0.25 mM CL): +10 °C
∆TM in Buffer with 0.25 mM CL [2, 5]: 6.5 ± 0.2 °C
Increase of ΔTM-value due to the addition of CL ([3]; 0.25 mM CL): +13 °C
TM in Buffer with 0.25 mM CL ([3]; 1 mg/mL protein): 40.2 ± 0.7 °C
∆TM in Buffer with 0.25 mM CL [3, 5]: 3.3 ± 0.1 °C
Increase of ΔTM-value due to the addition of CL ([4]; 0.25 mM CL): +10 °C
TM in Buffer with 0.25 mM CL ([4]; 1 mg/mL protein): 47.6 °C
∆TM in Buffer with 0.25 mM CL [4, 5]: 10.6 °C
Substance: Cardiolipin [CL]
